Assay results from patent US6509464B1, “FKBP inhibitors” (Pfizer Inc, priority 1999, dated 2003).

Legend:
Format in all cases: biochemical
[1] = molecular target: T1, human recombinant FKBP-12 (Homo sapiens, UniProt P62942); assay: coupled PPIase (rotamase) assay, Ki,app determination vs. FKBP-12; conditions: tested vs. FKBP-12 and/or FKBP-52; FKBP-12 method; succinyl-AFPF-pNA, 10° C., pH 8.0
Excerpt: (§1) The affinity of the compounds of the formula (I) for FKBP-12 can be determined in vitro in a coupled calorimetric PPlase assay using similar procedures to published methods (e.g. see Kofron, J. L., et al., Biochemistry, 1991, 30, 6127-6134, Zarnt, T., et al., Biochem. J. 1995, 305, 159-164, Holt, D. A., et al., J. Am. Chem. Soc., 1993, 115, 9925-9938). In these methods, the cis-trans isomerisation of a hydrophobic amino acid-proline bond in a tetrapeptide substrate (e.g. the phenylalanine-proline bond in N-succinyl-ala-phe-pro-phe-p-nitroanilide [succinyl-AFPF-pNA]) can be determined by monitoring cleavage of pNA from the transPro-containing peptide by an excess of chymotrypsin.
(§2) Assay buffer (2.175 ml) (50 mM HEPES, 100 mM NaCl, 1 mM DTT, pH 8.0) is equilibrated to 10° C. in a cuvette. 12.5 μl of a solution of the present compound in DMSO, 250 μl of a 60 mg/ml solution of α-chymotrypsin in 1 mM aqueous hydrochloric acid and then 50 μL of a solution of human recombinant FKBP-12 (1.5 μM) in assay buffer are added and mixed. The reaction is initiated by adding 12.5 μl of a solution of anhydrous succinyl-AFPF-pNA (100 μM final concentration) in a 400 mM solution of LiCl in trifluoroethanol. The absorbance at 390 nm is monitored for 3 minutes collecting data every 0.5 second. Data are fitted with a first order rate equation with offset and the initial velocity (v) is calculated from the concentration of cis (re leu-pro bond)-succinyl-AFPF-pNA at to and the first order rate constant at different inhibitor concentrations (I). Data in the form vinh/vcontrol v. [I] are fitted with an equation for reversible tight binding inhibition to generate values for Kiapp (see Morrison, J. F., et al, Comments Mol. Cell Biophys., 1985, 2, 347-368). This analysis is used when the Ki,app approaches the concentration of FKBP-12 in the assay (30 nM).

[2] = molecular target: T2, human recombinant FKBP-52 (Homo sapiens, UniProt Q02790); assay: coupled PPIase (rotamase) assay, Ki,app determination vs. FKBP-52; conditions: tested vs. FKBP-12 and/or FKBP-52; FKBP-52 method; succinyl-AFPF-pNA, 10° C., pH 8.0
T2 sequence (Q02790 1-459): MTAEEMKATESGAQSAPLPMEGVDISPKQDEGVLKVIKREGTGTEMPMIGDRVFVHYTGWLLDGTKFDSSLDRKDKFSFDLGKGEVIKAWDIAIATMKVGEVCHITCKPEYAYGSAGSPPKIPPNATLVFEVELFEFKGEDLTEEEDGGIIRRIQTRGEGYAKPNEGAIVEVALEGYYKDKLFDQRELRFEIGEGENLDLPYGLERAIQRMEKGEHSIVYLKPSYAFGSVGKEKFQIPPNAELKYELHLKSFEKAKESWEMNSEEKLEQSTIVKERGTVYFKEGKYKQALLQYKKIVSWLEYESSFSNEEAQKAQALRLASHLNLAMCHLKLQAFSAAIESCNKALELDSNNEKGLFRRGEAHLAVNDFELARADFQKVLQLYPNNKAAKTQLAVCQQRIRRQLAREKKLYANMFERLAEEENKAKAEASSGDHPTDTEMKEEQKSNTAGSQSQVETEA
Protocol: as §2
The same methodology is used to measure Ki,app for FKBP-52, with the following modifications: 40 μl human recombinant FKBP-52 (5.2 μM) is substituted for FKBP-12 and 2.185 ml assay buffer are used in the assay.

[3] = molecular target: T1, human recombinant FKBP-12; assay: coupled PPIase (rotamase) assay, IC50 determination vs. FKBP-12; conditions: tested vs. FKBP-12 and/or FKBP-52; succinyl-AFPF-pNA substrate, chymotrypsin-coupled, 10° C., pH 8.0
Excerpt: as §1
The IC50 (the concentration of the compound of the formula (I) producing 50% inhibition) values were determined using the following assay methodology. Assay buffer (2.175 ml) (50 mM 4-(2-hydroxyethyl)-1-piperazineethanesulphonic acid (HEPES), 100 mM NaCl, 1 mM dithiothreitol (DTT), pH 8.0) is equilibrated to 10° C. in a cuvette. 12.5 μl of a solution of the present compound in DMSO, 250 μl of a 60 mg/ml solution of α-chymotrypsin in 1 mM aqueous hydrochloric acid and then 50 μl of a solution of human recombinant FKBP-12 (4.5 μM) in assay buffer are added and mixed. The reaction is initiated by addition of 12.5 μl of a solution of 20 mM succinyl-AFPF-pNA in DMSO. The absorbance at 390 nm is monitored for one minute collecting data every 0.25 second. Data are fitted with a first order rate equation with offset and the rate constant obtained corrected for the rate of uncatalysed isomerisation of the substrate. The rate constant determined at different inhibitor concentrations (10 nM to 100 μM) is expressed as % inhibition of the control rate constant. The IC50 is estimated using a nonlinear least squares curve fitting routine of the sigmoidal dose response data.

T1 sequence (P62942 whole entry): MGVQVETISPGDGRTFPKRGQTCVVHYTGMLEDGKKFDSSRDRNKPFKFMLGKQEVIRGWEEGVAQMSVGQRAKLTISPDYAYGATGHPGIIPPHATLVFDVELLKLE

SMILES | Ki [1] [nM] | Ki [2] [nM] | IC50 [3] [nM]
C[C@@H]1CCC[C@H](C)N1CCNC(=O)[C@@H]1CCCCN1c1nc2ccccc2[nH]1 [Example 17] | < 1000 | < 1000 | < 1000
COc1ccc2[nH]c(N3CCCC[C@H]3C(=O)NCCN3[C@H](C)CCC[C@@H]3C)nc2c1 [Example 18] | < 1000 | < 1000 | < 1000
C[C@@H]1CCC[C@H](C)N1CCNC(=O)[C@@H]1CCCCN1c1nc2ccc(F)cc2[nH]1 [Example 19] | < 1000 | < 1000 | < 1000
Cc1cccc2[nH]c(N3CCCC[C@H]3C(=O)NCCN3[C@H](C)CCC[C@@H]3C)nc12 [Example 27] | < 1000 | < 1000 | < 1000
Cc1cc2nc(N3CCCC[C@H]3C(=O)NCCN3[C@H](C)CCC[C@@H]3C)oc2cc1C [Example 31, (2S)-N^2-2-[(cis)-2,6-Dimethyl-1-piperidinyl]ethyl-1-[5,6-dimethyl-1,3-benzoxazol-2-yl]-2-piperidinecarboxamide] | < 1000 | < 1000 | < 1000

Second part, the compound after the results:

Ki [1] [nM] | Ki [2] [nM] | IC50 [3] [nM] | SMILES
< 1000 | < 1000 | < 1000 | C[C@@H]1CCC[C@H](C)N1CCNC(=O)[C@@H]1CCCCN1c1nc2ccccc2o1 [Example 3, (2S)-1-(1,3-Benzoxazol-2-yl)-N^2-2-[(cis)-2,6-dimethyl-1-piperidinyl]ethyl-2-piperidinecarboxamide]
< 1000 | < 1000 | < 1000 | CC(C)NC(=O)N1C[C@@H](C)N(CCNC(=O)[C@@H]2CCCCN2c2nc3ccccc3o2)[C@@H](C)C1 [Example 11, (cis)-4-[2-([(2S)-1-(1,3-Benzoxazol-2-yl)-2-piperidinyl]carbonylamino)ethyl]-N^1-isopropyl-3,5-dimethyl-1-piperazinecarboxamide]
< 1000 | < 1000 | < 1000 | CC1COCC(C)N1CCNC(=O)[C@@H]1CCCCN1c1nc2ccccc2o1 (stereo partly drawn) [Example 12, (2S)-1-(1,3-Benzoxazol-2-yl)-N^2-[2-(3,5-dimethylmorpholino)ethyl]-2-piperidinecarboxamide]
